Experimental data as given in patent US12492163B2, “9H-fluorene derivatives or their pharmaceutically acceptable salts” (priority 2020, dated 2025).

Columns and labels:
Type in all cases: biochemical
[1] = target: horse plasma butyrylcholinesterase (eqBuChE) (Equus caballus (Horse), UniProt P81908); experiment: Ellman's test, inhibition of horse plasma butyrylcholinesterase
Description: (§1) The spectrophotometric Ellman's test [Ellman et al.] modified for assays in 96-well plates was used to test the activity. Reagents: 5,5′-dithiobis-(2-nitrobenzoic acid) (DTNB), eqBuChE and butyrylthiocholine iodide (BTC) were purchased from Sigma-Aldrich (Steinheim, Germany). hBuChE was from Vivonics (Bedford, MA, USA). The enzymes were prepared by dissolving in demineralized water to a concentration of 0.384 U/ml. Stock solutions of test compounds were prepared by dissolving in DMSO to a concentration of 0.0034 M. They were then diluted with water to obtain the appropriate concentrations in the wells. In the first step of the test, 25 μl of test compound (or DMSO/water mixture at the appropriate ratio for blank samples) was incubated in 0.1 M phosphate buffer (200 μl, pH=8.0) with DTNB (20 μl; 0.0025M) and with the appropriate enzyme (20 μl; eqBuChE or hBuChE) at 25° C. (animal enzyme) or 36° C. (human enzyme). After a 5 minutes incubation period, 20 μl of BTC solution (0.00375 M) was added. After another 5 minutes, the changes in absorbance of the solutions were measured at 412 nm using a multifunctional microplate reader (EnSpire Multimode; PerkinElmer; Waltham, MA, USA). All compounds were tested at a screening concentration of 10 μM (eqBuChE) or 1 μM (hBuChE). The percentage of enzyme inhibition was calculated from the equation 100-(S/B)×100, where S and B were the enzymatic activity in the test sample well and in the well without sample, respectively. […] All reactions were performed in triplicate. IC50 values were calculated using non-linear regression (GraphPad Prism 5 [GraphPad Software, San Diego, CA, USA 5.00]) for the percentage of enzyme inhibition against the inhibitor concentration used. Tacrine and donepezil were used as reference compounds.

[2] = target: human recombinant beta-secretase (hBACE1) (Homo sapiens (Human), UniProt P56817); experiment: FRET assay, inhibition of human recombinant beta-secretase; settings: for IC50: read-out: hBACE-1 IC50; for inhibition at 50 µM: 50 μM inhibitor concentration, read-out: hBACE-1 % inh
Description: The FRET assay [Vassar, et al.] was used to test activity using 384-well black plates and a microplate reader (EnSpire Multimode; PerkinElmer; Waltham, MA, USA). The test was purchased from Life Technologies Polska Sp. z o.o. (Warsaw, Poland). […] Stock solutions of test compounds were prepared in DMSO and then further diluted with assay buffer (50 mM sodium acetate; pH 4.5) to the appropriate concentrations in the wells. In the first step of the test, 10 μl of the substrate (Rh-[…] quencher, based on the so-called Swedish APP mutation) was mixed with 10 μl of the test compound (or assay buffer; for blank sample). The enzyme reaction was initiated by adding 10 μl of enzyme (hBACE1, 1 U/ml). The reaction mixture was incubated at 25° C. for 60 minutes, then 10 μL of Stop solution (2.5 M sodium acetate) was added. After stopping the reaction, fluorescence was measured at 576 nm. The percentage of enzyme inhibition was calculated from the formula [1−(S60−S0)/(C60−C0)]×100, where S0 and S60 are the fluorescence of the test sample (containing the enzyme, substrate and test compound) at the start of the reaction and after 60 minutes, respectively, whereas C0 and C60 were analogous fluorescence intensities in the blank samples (containing enzyme, substrate and buffer). All test compounds were tested at a concentration of 50 μM in triplicate. […] A BACE1 IV inhibitor (Calbiochem, Merck; Nottingham, UK) [Stachel et al.] was used as a reference compound. […] IC50 values for all test compounds were calculated using non-linear regression (GraphPad Prism 5 [GraphPad Software, San Diego, CA, USA 5.00]) for the percentage of enzyme inhibition against the inhibitor concentration used.

[3] = target: human plasma butyrylcholinesterase (hBuChE) (Homo sapiens (Human), UniProt P06276); experiment: Ellman's test, inhibition of human plasma butyrylcholinesterase; settings: for inhibition at 1 µM: 1 μM inhibitor concentration, read-out: hBuChE % inh
Description: as §1

[4] = target: Recombinant human Aβ1-42 peptide (Homo sapiens (Human), UniProt P05067); experiment: Thioflavin T test, antiaggregation activity against beta-amyloid; settings: 10 μM test compound, 1.5 μM Aβ1-42; read-out: inh. Aβ aggr. % inh
Description: The thioflavin T test [Levine III] was used for the determinations. Recombinant human Aβ1-42 peptide (HFIP pretreated, Merck Millipore, Darmstadt, Germany) was dissolved in DMSO to form a 75 μM stock solution. The solution was further diluted in HEPES buffer (150 mM HEPES, pH 7.4, 150 mM NaCl) to a concentration of 7.5 μM. Then, the Aβ1-42 solution was added to the test compounds (black 96-well plates were used) and diluted with thioflavin T solution (10 μM final concentration). The final mixture contained 1.5 μM Aβ1-42, 10 μM test compound, and 3% of DMSO. Fluorescence was measured every 300 s (excitation wavelength was 440 nm, emission wavelength was 490 nm) with continuous mixing between measurements. A multifunction microplate reader (Synergy H4; BioTek Instruments, Inc., Winooski, VT, USA) was used to measure the fluorescence. Fluorescence started increasing after approximately 4 hours, plateaued after 20 hours and remained virtually unchanged for the next 28 hours of incubation. The plateau-phase fluorescence intensities (in the presence and absence of test compounds) were averaged and the mean fluorescence values for the respective wells at t=0 h were subtracted from them. […] IC50 values were calculated using non-linear regression (GraphPad Prism 5 [GraphPad Software, San Diego, CA, USA 5.00]) for the percentage of aggregation inhibition against the inhibitor concentration used.

Chain of human plasma butyrylcholinesterase (hBuChE) (P06276 29-602): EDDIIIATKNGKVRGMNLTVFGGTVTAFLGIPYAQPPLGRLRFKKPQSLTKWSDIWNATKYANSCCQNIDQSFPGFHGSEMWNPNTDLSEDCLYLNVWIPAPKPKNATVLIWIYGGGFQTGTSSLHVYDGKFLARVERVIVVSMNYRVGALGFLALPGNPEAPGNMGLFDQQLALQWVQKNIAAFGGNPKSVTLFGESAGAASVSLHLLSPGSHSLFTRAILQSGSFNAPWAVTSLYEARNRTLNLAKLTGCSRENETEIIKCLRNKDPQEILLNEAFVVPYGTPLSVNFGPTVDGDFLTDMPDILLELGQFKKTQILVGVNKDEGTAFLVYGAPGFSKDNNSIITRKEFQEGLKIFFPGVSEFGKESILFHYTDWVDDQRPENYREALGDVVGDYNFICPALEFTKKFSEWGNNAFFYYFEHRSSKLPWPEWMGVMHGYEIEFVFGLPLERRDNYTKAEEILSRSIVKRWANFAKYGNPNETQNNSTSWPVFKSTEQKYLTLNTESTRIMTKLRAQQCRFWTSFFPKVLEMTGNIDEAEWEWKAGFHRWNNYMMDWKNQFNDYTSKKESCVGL
Chain of horse plasma butyrylcholinesterase (eqBuChE) (P81908 whole entry): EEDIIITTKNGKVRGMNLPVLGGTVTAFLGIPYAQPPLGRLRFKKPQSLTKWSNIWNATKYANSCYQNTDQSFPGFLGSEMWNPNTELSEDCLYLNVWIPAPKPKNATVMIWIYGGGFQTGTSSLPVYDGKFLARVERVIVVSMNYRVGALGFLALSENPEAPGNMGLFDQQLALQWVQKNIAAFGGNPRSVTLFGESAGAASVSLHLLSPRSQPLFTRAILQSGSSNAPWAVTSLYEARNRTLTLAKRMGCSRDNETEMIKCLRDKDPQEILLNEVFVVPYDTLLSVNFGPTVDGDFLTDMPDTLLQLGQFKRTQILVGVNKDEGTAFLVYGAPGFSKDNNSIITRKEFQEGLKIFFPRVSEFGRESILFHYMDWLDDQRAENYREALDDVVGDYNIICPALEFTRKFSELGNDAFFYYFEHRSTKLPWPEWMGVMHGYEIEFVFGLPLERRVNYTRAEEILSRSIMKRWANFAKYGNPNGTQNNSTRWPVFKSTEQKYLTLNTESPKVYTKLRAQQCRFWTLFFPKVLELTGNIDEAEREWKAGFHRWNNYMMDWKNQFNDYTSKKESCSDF
Chain of Recombinant human Aβ1-42 peptide (P05067 672-713): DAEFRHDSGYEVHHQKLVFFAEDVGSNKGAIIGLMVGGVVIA
Chain of human recombinant beta-secretase (hBACE1) (P56817 46-501): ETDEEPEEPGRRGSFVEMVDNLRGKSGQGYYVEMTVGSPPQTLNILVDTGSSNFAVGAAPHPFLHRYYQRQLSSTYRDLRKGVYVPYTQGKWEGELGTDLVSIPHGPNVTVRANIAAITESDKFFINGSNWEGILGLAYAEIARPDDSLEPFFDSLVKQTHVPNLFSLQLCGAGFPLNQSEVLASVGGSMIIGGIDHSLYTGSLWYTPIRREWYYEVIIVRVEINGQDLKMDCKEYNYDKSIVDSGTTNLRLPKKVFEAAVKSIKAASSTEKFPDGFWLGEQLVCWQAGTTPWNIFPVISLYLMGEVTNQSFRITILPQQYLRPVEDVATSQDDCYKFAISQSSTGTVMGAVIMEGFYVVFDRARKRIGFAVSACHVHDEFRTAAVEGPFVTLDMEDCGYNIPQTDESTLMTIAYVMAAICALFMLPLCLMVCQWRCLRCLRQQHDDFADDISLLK

In the case of O[C@@H](CNCc1ccccc1)[C@H](Cc1ccccc1)NC1c2ccccc2-c2ccccc21 [Compound 2, (2S,3S)-3-((9H-fluoren-9-yl)amino)-1-(benzylamino)-4-phenylbutan-2-ol], the IC50 [1] is reported as 333 nM, the IC50 [2] is reported as 4820 nM and the IC50 [3] is reported as 571 nM. For the same compound, the inhibition at 10 µM [4] was 86.3%.
Compound CC(C)c1cccc(CNC[C@@H](O)[C@H](Cc2ccccc2)NC2c3ccccc3-c3ccccc32)c1 [Compound 4, (2R,3S)-3-((9H-fluoren-9-yl)amino)-1-((3-isopropylbenzyl)amino)-4-phenylbutan-2-ol] has an IC50 [1] of 514 nM, an IC50 [2] of 3920 nM and an IC50 [3] of 489 nM. The inhibition at 10 µM [4] was 83.7%.
CC(C)(C)c1ccc(CNC[C@H](O)[C@H](Cc2ccccc2)NC2c3ccccc3-c3ccccc32)cc1 [Compound 5, (2S,3S)-3-((9H-fluoren-9-yl)amino)-1-((4-(tert-butyl)benzyl)amino)-4-phenylbutan-2-ol] showed an IC50 [1] of 803 nM, an IC50 [2] of 6640 nM and an inhibition at 1 µM [3] of 62%. For the same compound, the inhibition at 10 µM [4] was 75.6%.
O[C@H](CNCc1cccc(C(F)(F)F)c1)[C@H](Cc1ccccc1)NC1c2ccccc2-c2ccccc21 [Compound 8, (2R,3S)-3-((9H-fluoren-9-yl)amino)-4-phenyl-1-((3-(trifluoromethyl)benzyl)amino)-butan-2-ol] showed an IC50 [1] of 751 nM, an IC50 [2] of 3190 nM and an IC50 [3] of 721 nM. The inhibition at 10 µM [4] was 72.4%.
With C[C@H](NC[C@@H](O)[C@H](Cc1ccccc1)NC1c2ccccc2-c2ccccc21)c1ccccc1 [Compound 9, (2R,3S)-3-((9H-fluoren-9-yl)amino)-4-phenyl-1-(((S)-1-phenylethyl)amino)butan-2-ol] the IC50 [1] was 264 nM, the IC50 [2] was 20100 nM and the IC50 [3] was 812 nM. The inhibition at 10 µM [4] was 63%.
For CC(C)(NC[C@@H](O)[C@H](Cc1ccccc1)NC1c2ccccc2-c2ccccc21)c1ccccc1 [Compound 10, (2R,3S)-3-((9H-fluoren-9-yl)amino)-4-phenyl-1-((2-phenylpropan-2-yl)amino)butan-2-ol], the IC50 [1] was 345 nM, the IC50 [2] was 17200 nM and the IC50 [3] was 1170 nM. For the same compound, the inhibition at 10 µM [4] was 90.8%.
Compound CC(C)(C)NC[C@H](O)[C@H](Cc1ccccc1)NC1c2ccccc2-c2ccccc21 [Compound 12, (2S,3S)-3-((9H-fluoren-9-yl)amino)-1-(tert-butylamino)-4-phenylbutan-2-ol] has an IC50 [1] of 4840 nM, an inhibition at 50 µM [2] of 48.7% and an inhibition at 1 µM [3] of 58.8%. The inhibition at 10 µM [4] was 67.2%.
CC(C)(C)CNC[C@@H](O)[C@H](Cc1ccccc1)NC1c2ccccc2-c2ccccc21 [Compound 13, (2R,3S)-3-((9H-fluoren-9-yl)amino)-1-(neopentylamino)-4-phenylbutan-2-ol] was tested, and the IC50 [1] was 1180 nM, the IC50 [2] was 8590 nM and the inhibition at 1 µM [3] was 61.3%. For the same compound, the inhibition at 10 µM [4] was 80.2%.
O[C@H](CNCC(F)(F)F)[C@H](Cc1ccccc1)NC1c2ccccc2-c2ccccc21 [Compound 14, (2R,3S)-3-((9H-fluoren-9-yl)amino)-4-phenyl-1-((2,2,2-trifluoroethyl)amino)butan-2-ol] gave an IC50 [1] of 1080 nM, an inhibition at 50 µM [2] of 36.8% and an inhibition at 1 µM [3] of 67.9%. It also gave an inhibition at 10 µM [4] of 82.5%.
Compound O[C@@H](CNCC1CC1)[C@H](Cc1ccccc1)NC1c2ccccc2-c2ccccc21 [Compound 15, (2S,3S)-3-((9H-fluoren-9-yl)amino)-1-((cyclopropylmethyl)amino)-4-phenylbutan-2-ol] has an IC50 [1] of 975 nM and an IC50 [3] of 1030 nM.
Work on CC(C)(C)c1ccc(CNC[C@H](O)[C@H](Cc2ccccc2)NC(=O)C2c3ccccc3-c3ccccc32)cc1 [Compound 18, N-((2S,3S)-4-((4-(tert-butyl)benzyl)amino)-3-hydroxy-1-phenylbutan-2-yl)-9H-fluorene-9-carboxamide] yielded an IC50 [1] of 1220 nM, an IC50 [2] of 1120 nM and an inhibition at 1 µM [3] of 55.6%. It also gave an inhibition at 10 µM [4] of 63.5%.
